Source: patent publication US20090156825A1, “Fluorescent compounds that bind to histone deacetylase” (priority 2007, published 2009)
Entries after “also recorded” stand apart in the source; their conditions may differ.

Molecular target: T1, HDAC1 (Homo sapiens, UniProt Q13547)
T1 construct: Flag
Assay: Fluorescence polarization Kd determination of FITC-labeled compounds by HDAC1 titration
Type: binding
Conditions: for time for binding to come to equilibrium: FP read over time after adding the FITC-labeled compound to HDAC1; for binding mechanism (exponential fit of Kd app versus time): replot of Kd app values vs. time, 1-phase or 2-phase exponential fit
Procedure: Titrations of HDAC1 were set up in 96-well black, flat-bottom plates. The concentrations of HDAC1 varied from 5 to 200 nM (with COMPOUND 1 and COMPOUND 2) or 20 to 450 nM (with COMPOUND 3). At time zero, the FITC-labeled compound was added and the plate inserted into the Analyst HT for FP detection. The samples were read every 5 seconds through ˜10 minutes (COMPOUND 1) or 2 hours (COMPOUND 2 and COMPOUND 3). The data at each time point was converted from mP to […] and plotted in Prism using an equation for ligand binding taking ligand-depletion into consideration (Equations 1-3) (An example of which is given in FIG. 1A).
where Lt is total fluorescently-labeled compound concentration, Rt is total HDAC concentration, Kd is the dissociation constant for the ligand to HDAC, Ab is the anisotropy when 100% of the ligand is bound, and Af is the anisotropy when 100% of the ligand is free. The values determined by the data as plotted in Figure A are Kd^app, Ab, and Af.
After determining the Kd^app for each time point, the Kd^app was replotted versus time (FIG. 1B) to determine true steady-state Kd. […] The plateau value of this exponential decay defines the steady-state Kd value.

T1 sequence (Q13547 whole entry): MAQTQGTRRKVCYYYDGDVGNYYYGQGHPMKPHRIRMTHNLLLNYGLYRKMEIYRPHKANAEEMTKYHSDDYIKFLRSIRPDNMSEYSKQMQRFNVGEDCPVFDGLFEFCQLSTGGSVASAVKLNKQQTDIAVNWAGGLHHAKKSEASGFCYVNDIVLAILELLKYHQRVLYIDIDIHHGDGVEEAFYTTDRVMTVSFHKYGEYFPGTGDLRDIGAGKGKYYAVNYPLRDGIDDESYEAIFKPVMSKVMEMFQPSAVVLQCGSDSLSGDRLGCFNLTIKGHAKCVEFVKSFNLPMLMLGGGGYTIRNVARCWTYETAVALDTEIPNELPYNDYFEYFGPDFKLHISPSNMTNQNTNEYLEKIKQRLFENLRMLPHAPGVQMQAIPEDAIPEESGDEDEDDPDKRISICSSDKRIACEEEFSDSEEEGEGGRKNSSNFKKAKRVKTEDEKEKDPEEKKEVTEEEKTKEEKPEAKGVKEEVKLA

Kd (plateau of Kd app replotted versus time, HDAC1 5 to 200 nM, FP detection, read-out: true steady-state Kd)	SMILES	time for binding to come to equilibrium	binding mechanism (exponential fit of Kd app versus time)	binding mechanism (exponential fit of Kd app versus time) (listed as FITC-SAHA)
16 nM	O=C(CCCCCCC(=O)Nc1ccc(CNC(=S)Nc2ccc(-c3c4ccc(=O)cc-4oc4cc(O)ccc34)c(C(=O)O)c2)cc1)NO [COMPOUND 1, 5-({[(4-{[8-(hydroxyamino)-8-oxooctanoyl]amino}benzyl)amino]carbonothioyl}amino)-2-(6-hydroxy-3-oxo-3H-xanthen-9-yl)benzoic acid]	faster than could be measured by the instrument used	classical 1-step binding mechanism	fits 1-phase exponential curve quite well
–	Nc1ccc(-c2ccccc2)cc1NC(=O)c1ccc(CNC(=O)OCc2ccc(CNC(=S)Nc3ccc(-c4c5ccc(=O)cc-5oc5cc(O)ccc45)c(C(=O)O)c3)cc2)cc1 [COMPOUND 2, 5-{[({4-[({[(4-{[(4-aminobiphenyl-3-yl)amino]carbonyl}benzyl)amino]carbonyl}oxy)methyl]benzyl}amino)carbonothioyl]amino}-2-(6-hydroxy-3-oxo-3H-xanthen-9-yl)benzoic acid]	210 min	requires a 2-phase exponential curve; also recorded: bound slowly with an induced-fit mechanism	–
